Source: ChEMBL document CHEMBL4411321, “Discovery of Potent, Selective, and Orally Bioavailable Estrogen-Related Receptor-γ Inverse Agonists To Restore the Sodium Iodide Symporter Function in Anaplastic Thyroid Cancer” (J Med Chem, 2019)

Experiments:
[1] = Terminal half life in Sprague-Dawley rat at 1 mg/kg, iv by LC-MS/MS analysis; format: ADME, organism-based; conditions: in vivo, read-out: beta t1/2 (converted)
in vivo [2] = conditions: Sprague-Dawley, rat, plasma, iv, 1 mg/kg
CYP2C19 = CYP2C19 (Homo sapiens, UniProt P33261); experiment: Inhibition of CYP2C19 in human liver microsomes assessed as reduction in S-mephenytoin 4-hydroxylase activity at 10 uM preincubated for 5 mins followed by NADPH addition and measured after 15 mins by LC-MS/MS analysis relative to control; format: ADME; conditions: probe S-mephenytoin (4-hydroxylation)
[3] = target: Voltage-gated inwardly rectifying potassium channel KCNH2 (Homo sapiens, UniProt Q12809)
Description: Inhibition of human ERG after 4 hrs by fluorescence polarization assay

[4] = Metabolic stability in human liver microsomes assessed as compound remaining at 1 uM after 30 mins in presence of NADPH regeneration system by LC-MS/MS analysis; format: ADME, Microsome; conditions: read-out: Stability
[5] = Cmax in Sprague-Dawley rat at 9 to 10 mg/kg, po via gavage by LC-MS/MS analysis; format: ADME, organism-based; conditions: in vivo
CYP1A2 = target: T1, CYP1A2 (Homo sapiens, UniProt P05177); experiment: Inhibition of CYP1A2 in human liver microsomes assessed as reduction in phenacetin O-deethylase activity at 10 uM preincubated for 5 mins followed by NADPH addition and measured after 15 mins by LC-MS/MS analysis relative to control; format: ADME; conditions: probe phenacetin (O-deethylation)
T1 sequence (P05177 whole entry): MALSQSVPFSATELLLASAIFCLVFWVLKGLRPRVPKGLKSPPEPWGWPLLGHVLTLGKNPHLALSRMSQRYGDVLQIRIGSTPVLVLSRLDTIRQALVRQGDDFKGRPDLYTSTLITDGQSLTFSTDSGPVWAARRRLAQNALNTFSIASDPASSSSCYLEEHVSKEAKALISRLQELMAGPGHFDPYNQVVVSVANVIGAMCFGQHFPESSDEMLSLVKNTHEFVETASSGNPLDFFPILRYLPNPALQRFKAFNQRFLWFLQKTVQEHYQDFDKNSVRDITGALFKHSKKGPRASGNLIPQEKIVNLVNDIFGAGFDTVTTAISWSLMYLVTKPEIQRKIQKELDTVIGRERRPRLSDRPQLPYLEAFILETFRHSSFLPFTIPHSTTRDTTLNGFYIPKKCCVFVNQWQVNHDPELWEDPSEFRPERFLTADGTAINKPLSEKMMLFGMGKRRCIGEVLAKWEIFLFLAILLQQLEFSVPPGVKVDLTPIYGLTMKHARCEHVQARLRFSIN

Estrogen receptor = target: T2, Estrogen receptor (Homo sapiens, UniProt P03372)
T2 sequence (P03372 whole entry): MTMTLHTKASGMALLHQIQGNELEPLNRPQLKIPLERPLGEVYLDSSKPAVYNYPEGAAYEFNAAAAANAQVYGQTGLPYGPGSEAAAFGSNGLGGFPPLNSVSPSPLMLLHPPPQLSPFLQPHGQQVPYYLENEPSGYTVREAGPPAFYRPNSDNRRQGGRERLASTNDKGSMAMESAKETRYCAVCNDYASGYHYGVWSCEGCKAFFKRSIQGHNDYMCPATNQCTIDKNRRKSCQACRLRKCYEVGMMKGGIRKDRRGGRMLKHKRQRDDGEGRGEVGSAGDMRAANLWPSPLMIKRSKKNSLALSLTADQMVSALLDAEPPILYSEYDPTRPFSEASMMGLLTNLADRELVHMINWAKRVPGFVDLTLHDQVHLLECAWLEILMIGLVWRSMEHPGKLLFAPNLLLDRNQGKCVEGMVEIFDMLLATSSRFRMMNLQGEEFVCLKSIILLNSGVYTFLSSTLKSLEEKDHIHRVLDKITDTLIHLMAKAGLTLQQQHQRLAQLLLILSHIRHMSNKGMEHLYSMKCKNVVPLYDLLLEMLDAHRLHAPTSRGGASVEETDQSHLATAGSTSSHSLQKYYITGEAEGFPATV

[6] = Effective permeability of the compound at 10 uM after 5 hrs by PAMPA; format: ADME; conditions: read-out: Peff
CYP2D6 = CYP2D6 (Homo sapiens, UniProt P10635); experiment: Inhibition of CYP2D6 in human liver microsomes assessed as reduction in dextromethorphan O-demethylase activity at 10 uM preincubated for 5 mins followed by NADPH addition and measured after 15 mins by LC-MS/MS analysis relative to control; format: ADME; conditions: probe dextromethorphan (O-demethylation)
in vivo [7] = conditions: Sprague-Dawley, rat, iv, 1 mg/kg
Description: Volume of distribution at steady state in Sprague-Dawley rat at 1 mg/kg, iv by LC-MS/MS analysis

in vivo [8] = conditions: Sprague-Dawley, rat, iv, 1 mg/kg; remark: listed apart in the source
[9] = AUC (0 to infinity) in Sprague-Dawley rat at 1 mg/kg, iv by LC-MS/MS analysis; format: ADME, organism-based; parameters: dose 1 mg/kg, time infinity, route intravenous; conditions: in vivo
[10] = Oral bioavailability in Sprague-Dawley rat at 9 to 10 mg/kg via gavage by LC-MS/MS analysis; format: ADME, organism-based; conditions: in vivo
[11] = target: T3, Steroid hormone receptor ERR1 (Homo sapiens, UniProt P11474)
T3 sequence (P11474 whole entry): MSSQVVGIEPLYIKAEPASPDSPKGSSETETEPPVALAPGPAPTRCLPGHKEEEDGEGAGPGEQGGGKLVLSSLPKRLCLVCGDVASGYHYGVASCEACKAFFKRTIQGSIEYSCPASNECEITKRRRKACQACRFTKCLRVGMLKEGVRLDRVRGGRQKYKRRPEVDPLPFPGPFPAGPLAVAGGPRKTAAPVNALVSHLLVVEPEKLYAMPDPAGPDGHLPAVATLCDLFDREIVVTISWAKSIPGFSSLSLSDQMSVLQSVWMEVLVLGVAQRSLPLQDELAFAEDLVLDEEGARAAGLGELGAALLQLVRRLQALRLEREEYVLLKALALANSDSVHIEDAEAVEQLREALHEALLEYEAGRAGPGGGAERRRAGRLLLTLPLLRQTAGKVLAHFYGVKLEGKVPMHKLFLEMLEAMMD

CYP3A4 = CYP3A4 (Homo sapiens, UniProt P08684); experiment: Inhibition of CYP3A4 in human liver microsomes assessed as reduction in midazolam 1-hydroxylase activity at 10 uM preincubated for 5 mins followed by NADPH addition and measured after 15 mins by LC-MS/MS analysis relative to control; format: ADME; conditions: probe midazolam (1-hydroxylation)
[12] = AUC (0 to infinity) in Sprague-Dawley rat at 9 to 10 mg/kg, po via gavage by LC-MS/MS analysis; format: ADME, organism-based; conditions: in vivo
[13] = Metabolic stability in rat liver microsomes assessed as compound remaining at 1 uM after 30 mins in presence of NADPH regeneration system by LC-MS/MS analysis; format: ADME, Microsome; conditions: read-out: Stability
CYP2C9 = CYP2C9 (Homo sapiens, UniProt P11712); experiment: Inhibition of CYP2C9 in human liver microsomes assessed as reduction in tolbutamide 4-hydroxylase activity at 10 uM preincubated for 5 mins followed by NADPH addition and measured after 15 mins by LC-MS/MS analysis relative to control; format: ADME; conditions: probe tolbutamide (4-hydroxylation)
[14] = AUC in Sprague-Dawley rat at 9 to 10 mg/kg, po via gavage by LC-MS/MS analysis; format: ADME, organism-based; conditions: in vivo
[15] = Tmax in Sprague-Dawley rat at 9 to 10 mg/kg, po via gavage by LC-MS/MS analysis; format: ADME, organism-based; conditions: in vivo
[16] = Metabolic stability in mouse liver microsomes assessed as compound remaining at 1 uM after 30 mins in presence of NADPH regeneration system by LC-MS/MS analysis; format: ADME, Microsome; conditions: read-out: Stability
[17] = Metabolic stability in dog liver microsomes assessed as compound remaining at 1 uM after 30 mins in presence of NADPH regeneration system by LC-MS/MS analysis; format: ADME, Canis lupus familiaris, Microsome; conditions: read-out: Stability
[18] = target: T4, Estrogen-related receptor gamma (Homo sapiens, UniProt P62508)
T4 sequence (P62508 whole entry): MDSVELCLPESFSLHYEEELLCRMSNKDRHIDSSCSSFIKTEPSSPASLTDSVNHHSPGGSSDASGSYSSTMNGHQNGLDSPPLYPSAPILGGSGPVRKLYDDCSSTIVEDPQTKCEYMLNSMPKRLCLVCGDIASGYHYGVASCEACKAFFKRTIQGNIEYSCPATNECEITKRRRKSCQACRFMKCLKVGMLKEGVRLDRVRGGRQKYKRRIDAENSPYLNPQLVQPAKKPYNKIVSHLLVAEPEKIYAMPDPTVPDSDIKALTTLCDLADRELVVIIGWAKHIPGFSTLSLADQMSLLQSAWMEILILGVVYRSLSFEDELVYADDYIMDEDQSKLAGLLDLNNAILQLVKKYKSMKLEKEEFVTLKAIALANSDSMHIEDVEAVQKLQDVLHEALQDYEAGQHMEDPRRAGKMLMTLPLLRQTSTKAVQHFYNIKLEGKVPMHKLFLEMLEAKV
Description: Inverse agonist activity at CMX-gal4-fused ERRgamma (unknown origin) transfected in human AD293 cells co-expressing CMV-beta galactosidase assessed as effect on beta-galactosidase activity after 24 hrs by luciferase reporter gene assay

[19] = target: T4, Estrogen-related receptor gamma; remark: listed apart in the source

Sequence of Voltage-gated inwardly rectifying potassium channel KCNH2 (Q12809 whole entry): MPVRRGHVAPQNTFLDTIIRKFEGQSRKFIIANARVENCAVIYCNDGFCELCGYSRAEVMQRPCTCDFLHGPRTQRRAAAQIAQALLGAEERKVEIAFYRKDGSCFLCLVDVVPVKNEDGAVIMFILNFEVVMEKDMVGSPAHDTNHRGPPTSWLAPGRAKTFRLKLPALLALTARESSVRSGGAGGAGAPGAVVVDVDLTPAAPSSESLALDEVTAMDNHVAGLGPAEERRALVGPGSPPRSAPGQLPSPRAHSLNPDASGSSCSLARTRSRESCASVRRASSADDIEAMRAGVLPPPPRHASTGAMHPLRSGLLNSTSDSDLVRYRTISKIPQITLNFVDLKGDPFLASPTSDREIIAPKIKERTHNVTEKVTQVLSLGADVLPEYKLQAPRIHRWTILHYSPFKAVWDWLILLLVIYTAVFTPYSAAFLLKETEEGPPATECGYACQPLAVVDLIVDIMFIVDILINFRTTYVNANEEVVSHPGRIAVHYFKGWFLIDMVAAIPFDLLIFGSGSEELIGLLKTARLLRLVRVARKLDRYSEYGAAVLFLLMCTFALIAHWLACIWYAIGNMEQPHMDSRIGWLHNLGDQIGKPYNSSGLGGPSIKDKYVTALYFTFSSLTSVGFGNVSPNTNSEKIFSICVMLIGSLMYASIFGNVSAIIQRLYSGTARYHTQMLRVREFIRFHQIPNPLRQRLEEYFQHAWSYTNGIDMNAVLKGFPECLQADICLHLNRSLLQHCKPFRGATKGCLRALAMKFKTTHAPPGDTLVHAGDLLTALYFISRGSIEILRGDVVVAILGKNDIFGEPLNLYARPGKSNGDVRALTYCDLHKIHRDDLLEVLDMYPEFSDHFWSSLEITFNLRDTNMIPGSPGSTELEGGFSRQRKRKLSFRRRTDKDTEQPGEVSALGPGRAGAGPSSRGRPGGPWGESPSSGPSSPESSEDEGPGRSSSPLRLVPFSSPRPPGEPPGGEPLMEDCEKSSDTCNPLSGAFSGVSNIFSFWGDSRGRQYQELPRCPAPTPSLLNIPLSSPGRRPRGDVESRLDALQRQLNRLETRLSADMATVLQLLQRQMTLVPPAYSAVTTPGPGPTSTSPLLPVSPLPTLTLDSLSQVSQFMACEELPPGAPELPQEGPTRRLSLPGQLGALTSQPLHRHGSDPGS
Sequence of CYP2D6 (P10635 whole entry): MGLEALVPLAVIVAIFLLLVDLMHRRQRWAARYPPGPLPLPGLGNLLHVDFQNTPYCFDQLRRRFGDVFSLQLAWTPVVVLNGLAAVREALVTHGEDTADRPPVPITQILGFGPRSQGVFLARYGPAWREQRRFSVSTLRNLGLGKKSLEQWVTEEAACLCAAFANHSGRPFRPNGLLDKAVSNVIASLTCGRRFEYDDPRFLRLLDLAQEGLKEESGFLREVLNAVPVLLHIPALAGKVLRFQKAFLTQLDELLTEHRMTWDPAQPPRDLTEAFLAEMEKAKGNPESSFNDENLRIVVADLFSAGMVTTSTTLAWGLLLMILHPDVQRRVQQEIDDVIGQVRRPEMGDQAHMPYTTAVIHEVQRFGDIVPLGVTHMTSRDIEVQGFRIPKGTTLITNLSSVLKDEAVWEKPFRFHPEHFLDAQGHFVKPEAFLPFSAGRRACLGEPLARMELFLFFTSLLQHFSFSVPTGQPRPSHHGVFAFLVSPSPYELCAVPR
Sequence of CYP2C9 (P11712 whole entry): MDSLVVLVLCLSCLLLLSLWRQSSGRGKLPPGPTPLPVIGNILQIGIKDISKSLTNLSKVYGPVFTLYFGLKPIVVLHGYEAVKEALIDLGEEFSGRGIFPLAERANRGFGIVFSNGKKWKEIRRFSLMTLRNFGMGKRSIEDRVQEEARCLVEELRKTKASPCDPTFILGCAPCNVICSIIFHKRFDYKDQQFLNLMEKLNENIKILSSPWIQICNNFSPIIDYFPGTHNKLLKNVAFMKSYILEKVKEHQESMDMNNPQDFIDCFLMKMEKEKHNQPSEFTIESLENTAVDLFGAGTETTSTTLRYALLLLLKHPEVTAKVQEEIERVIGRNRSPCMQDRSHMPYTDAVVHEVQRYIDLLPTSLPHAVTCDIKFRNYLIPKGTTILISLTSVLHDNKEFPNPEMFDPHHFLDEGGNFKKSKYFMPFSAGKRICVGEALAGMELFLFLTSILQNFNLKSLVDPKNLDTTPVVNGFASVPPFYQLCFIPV
Sequence of CYP3A4 (P08684 whole entry): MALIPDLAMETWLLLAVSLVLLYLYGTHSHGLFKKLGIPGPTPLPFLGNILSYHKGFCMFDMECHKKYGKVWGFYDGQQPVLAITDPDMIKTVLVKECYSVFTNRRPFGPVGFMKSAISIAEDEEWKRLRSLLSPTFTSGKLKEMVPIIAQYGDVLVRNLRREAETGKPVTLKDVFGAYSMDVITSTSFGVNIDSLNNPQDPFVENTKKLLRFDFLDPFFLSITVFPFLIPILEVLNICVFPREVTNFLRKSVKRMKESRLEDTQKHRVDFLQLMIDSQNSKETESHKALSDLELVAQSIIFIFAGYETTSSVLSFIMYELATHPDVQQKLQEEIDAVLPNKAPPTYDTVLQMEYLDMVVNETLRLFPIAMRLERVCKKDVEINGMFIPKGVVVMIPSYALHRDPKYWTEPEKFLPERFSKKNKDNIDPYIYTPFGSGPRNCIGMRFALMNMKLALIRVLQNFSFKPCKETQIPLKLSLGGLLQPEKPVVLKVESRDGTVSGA
Sequence of CYP2C19 (P33261 whole entry): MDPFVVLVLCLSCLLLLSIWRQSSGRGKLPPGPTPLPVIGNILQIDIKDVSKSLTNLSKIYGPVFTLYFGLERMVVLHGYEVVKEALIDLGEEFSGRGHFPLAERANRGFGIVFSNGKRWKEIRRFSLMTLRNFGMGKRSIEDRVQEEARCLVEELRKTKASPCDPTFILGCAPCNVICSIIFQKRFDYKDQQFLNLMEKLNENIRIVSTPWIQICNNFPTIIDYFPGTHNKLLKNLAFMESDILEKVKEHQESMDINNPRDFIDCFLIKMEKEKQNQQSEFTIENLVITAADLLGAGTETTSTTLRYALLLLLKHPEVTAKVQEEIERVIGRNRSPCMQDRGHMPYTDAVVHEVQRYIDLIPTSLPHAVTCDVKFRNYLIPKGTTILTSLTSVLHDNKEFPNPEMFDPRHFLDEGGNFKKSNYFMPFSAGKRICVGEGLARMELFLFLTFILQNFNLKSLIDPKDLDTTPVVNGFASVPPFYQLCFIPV

| Structure (SMILES) | half-life [1] [h] | clearance (in vivo [2]) [mL/min/kg] | inhibition at 0.25 h, 10 µM (CYP2C19) [%] | IC50 [3] [µM] | remaining at 0.5 h, 1 µM [4] [%] | Cmax [5] [nM] | inhibition at 0.25 h, 10 µM (CYP1A2) [%] | IC50 (Estrogen receptor) [µM] | Papp at 5 h, 10 µM [6] [×10⁻⁶ cm/s] | inhibition at 0.25 h, 10 µM (CYP2D6) [%] | Vd (in vivo [7]) [L/kg] | AUC (in vivo [8]) [µM·h] | AUC(0-inf) [9] [µM·h] | bioavailability [10] [%] | IC50 [11] [µM] | inhibition at 0.25 h, 10 µM (CYP3A4) [%] | remaining at 0.5 h, 1 µM [13] [%] | inhibition at 0.25 h, 10 µM (CYP2C9) [%] | AUC [14] [µM·h] | remaining at 0.5 h, 1 µM [16] [%] | other results |
| --- | --- | --- | --- | --- | --- | --- | --- | --- | --- | --- | --- | --- | --- | --- | --- | --- | --- | --- | --- | --- | --- |
| Cc1ccc(/C(=C(\CCCO)c2ccccc2)c2ccc(N3CCN(C(C)C)CC3)cc2)cc1.Cl.Cl | 3.1 | 58 | 30.3 | > 30 | 54.2 | 160 | 10.2 | > 10 | 2.09 | 31.1 | 9.8 | 0.58 | 0.64 | 17.6 | > 10 | 47 | 40 | 26.6 | 1.02 | 19.7 | AUC(0-inf) [12]: 1.41 µM·h; Tmax [15]: 4 h |
| CN(C)CCOc1ccc(/C(=C(/CCCO)c2ccccc2)c2ccc(O)cc2)cc1.Cl |  | 44 |  |  |  |  |  |  |  |  | 16.8 |  |  | 8.4 |  |  |  |  | 0.68 |  |  |
| CC(C)N1CCN(c2ccc(/C(=C(/CCCO)c3ccccc3)c3ccc(O)cc3)cc2)CC1.Cl.Cl |  |  | 18.8 | 18.7 | 26.6 |  | 12 |  | 0.46 | 36.5 |  |  |  |  | > 10 | 33.6 | 32.5 | 13.9 |  | 19.9 | remaining at 0.5 h, 1 µM [17]: 49.7% |
| CCN1CCN(c2ccc(/C(=C(/CCCO)c3ccccc3)c3ccc(C)cc3)cc2)CC1.Cl.Cl | 3.2 | 59 | 26 |  | 67.9 | 210 | 0 | > 10 | 4.47 | 13.4 | 9.8 | 0.55 | 0.6 | 19.6 | > 10 | 22.4 | 62.8 | 13 | 1.07 | 54.9 | IC50 [18]: 0.018 µM; IC50 [19]: 0.025 µM; AUC(0-inf) [12]: 1.61 µM·h; remaining at 0.5 h, 1 µM [17]: 58%; Tmax [15]: 3 h |
| Cc1ccc(/C(=C(\CCCO)c2ccccc2)c2ccc(N3CCN(C)CC3)cc2)cc1.Cl.Cl | 2.5 | 139 | 27.2 | 18.9 | 79.2 | 80 | 0 | > 10 | 4.84 | 31.8 | 30.3 | 0.28 | 0.29 | 18.3 | > 10 | 29.1 | 65.7 | 37.7 | 0.45 | 47.6 | AUC(0-inf) [12]: 0.66 µM·h; Tmax [15]: 2.8 h |
